For 16 compounds, EC50 and IC50 results are on record in patent US20250129069A1, “TRIAZOLO WRN INHIBITORS” (Nimbus Wadjet, Inc., priority 2023, published 2025).

SMILES strings stand for the structures. Read-outs that look alike come from different tables or passages of the source.

The test system of experiment [1] is p21 induction in HCT 116 cells. Briefly: p21 induction in cells (In-Cell Western, p21/GAPDH ratio). It is filed as cell-based. Particulars: 24 h compound incubation, read-out: p21_EC50. In outline:
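HCT 116 cells treated 24 h at 37° C with 11-point, 2-fold dilutions typically from 10 μM, in duplicate. Fixed cells co-stained for p21 (800 nm) and GAPDH (700 nm) by In-Cell Western. p21/GAPDH ratio normalised between DMSO and reference WRN inhibitor controls, and EC50 obtained by nonlinear regression.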

The target in experiment [2] is human Werner helicase (WRN, amino acids 517-1235 with L1074F point mutation) (Homo sapiens (Human), UniProt Q14191, L1074F). Briefly: WRN (BV08) ADP-Glo assay. It is filed as biochemical. As to conditions: human WRN (aa 517-1235, L1074F), read-out: ADP-Glo_hWRN_IC50. In outline: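 Untagged WRN 517-1235 (L1074F), Sf9/baculovirus-expressed, 0.15 nM, preincubated 15 min with compound, then 5 μM ATP and 0.1 nM annealed DNA duplex added; 60 min at 25 °C in Bicine pH 7.5, 1 mM MgCl2, 1% DMSO. ADP-Glo luminescence; % inhibition vs DMSO and 20 μM NSC-617145 controls, four-parameter IC50 fit.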
Background: ADP-Glo first removes unused ATP, then detects ADP through luciferase.

Sequence of human Werner helicase (WRN, amino acids 517-1235 with L1074F point mutation) (Q14191 other isoform, or with tags, fused parts or gaps L1074F (already in the parent)): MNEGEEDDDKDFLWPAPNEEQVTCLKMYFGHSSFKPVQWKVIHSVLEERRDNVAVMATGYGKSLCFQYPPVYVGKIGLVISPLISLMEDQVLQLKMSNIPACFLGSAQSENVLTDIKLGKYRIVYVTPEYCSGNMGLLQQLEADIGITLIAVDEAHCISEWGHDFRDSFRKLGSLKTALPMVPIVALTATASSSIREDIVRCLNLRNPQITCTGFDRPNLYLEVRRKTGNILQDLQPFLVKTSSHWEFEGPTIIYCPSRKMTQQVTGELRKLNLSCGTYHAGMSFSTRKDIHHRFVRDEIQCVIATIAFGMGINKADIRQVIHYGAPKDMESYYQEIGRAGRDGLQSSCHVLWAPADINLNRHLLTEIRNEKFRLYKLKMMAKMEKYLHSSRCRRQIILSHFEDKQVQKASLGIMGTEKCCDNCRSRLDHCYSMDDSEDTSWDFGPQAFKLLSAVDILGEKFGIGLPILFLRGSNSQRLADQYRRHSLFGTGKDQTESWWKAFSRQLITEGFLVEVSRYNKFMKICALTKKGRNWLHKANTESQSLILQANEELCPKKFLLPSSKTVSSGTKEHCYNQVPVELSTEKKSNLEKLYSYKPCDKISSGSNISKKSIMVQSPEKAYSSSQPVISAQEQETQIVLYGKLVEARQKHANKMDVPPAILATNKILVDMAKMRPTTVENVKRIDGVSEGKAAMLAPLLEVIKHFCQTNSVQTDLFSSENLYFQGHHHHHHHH

Turning to `CCc1c(N2CCN(C(=O)c3ncnc(C)c3O)[C@H]3CC[C@@H]32)c(=O)c2nn(-c3ccnc(OC)c3)nc2n1CC(=O)NC12CC(C(C)C)(C1)C2` [Compound I-48, 2-{5-ethyl-6-[(1S,6S)-5-(5-hydroxy-6-methylpyrimidine-4-carbonyl)-2,5-diazabicyclo[4.2.0]octan-2-yl]-2-(2-methoxypyridin-4-yl)-7-oxo-2H,4H,7H-[1,2,3]triazolo[4,5-b]pyridin-4-yl}-N-[3-(propan-2-yl)bicyclo[1.1.1]pentan-1-yl]acetamide], the EC50 in experiment [1] was ≤ 500 nM. For the same compound, the IC50 in experiment [2] lay within 5 to 50 nM.

As for `CCc1c(N2CCN(C(=O)c3ncnc(C)c3O)[C@H]3CC[C@@H]32)c(=O)c2nn(-c3ccnc(OC)c3)nc2n1CC(=O)NC1(C)CC2(CCC2)C1` [Compound I-87, 2-{5-ethyl-6-[(1S,6S)-5-(5-hydroxy-6-methylpyrimidine-4-carbonyl)-2,5-diazabicyclo[4.2.0]octan-2-yl]-2-(2-methoxypyridin-4-yl)-7-oxo-2H,4H,7H-[1,2,3]triazolo[4,5-b]pyridin-4-yl}-N-{2-methylspiro[3.3]heptan-2-yl}acetamide], in experiment [1] (Homo sapiens), the EC50 was ≤ 500 nM. In addition, the IC50 in experiment [2] is 5 to 50 nM.

Turning to `CCc1c(N2CCN(C(=O)c3ncnc(C)c3O)CC2)c(=O)c2nn(-c3ccnc(OC)c3)nc2n1CC(=O)NC1CC2(CCC2)C1` [Compound I-118, 2-{5-ethyl-6-[4-(5-hydroxy-6-methylpyrimidine-4-carbonyl)piperazin-1-yl]-2-(2-methoxypyridin-4-yl)-7-oxo-2H,4H,7H-[1,2,3]triazolo[4,5-b]pyridin-4-yl}-N-{spiro[3.3]heptan-2-yl}acetamide], the EC50 in experiment [1] (Homo sapiens) was in the range of 500 to 2000 nM. Moreover, the IC50 in experiment [2] lay in the range of 5 to 50 nM.

Turning to `CCc1c(N2CCN(C(=O)c3ncnc(C)c3O)CC2)c(=O)c2nn(-c3ccnc(OC)c3)nc2n1CC(=O)NC12CC(C(F)(F)F)(C1)C2` [Compound I-151, 2-{5-ethyl-6-[4-(5-hydroxy-6-methylpyrimidine-4-carbonyl)piperazin-1-yl]-2-(2-methoxypyridin-4-yl)-7-oxo-2H,4H,7H-[1,2,3]triazolo[4,5-b]pyridin-4-yl}-N-[3-(trifluoromethyl)bicyclo[1.1.1]pentan-1-yl]acetamide], the EC50 in experiment [1] (Homo sapiens) is 500 to 2000 nM. The IC50 in experiment [2] was 5 to 50 nM.

Regarding `CCc1c(N2CCN(C(=O)c3ccccn3)[C@H]3CC[C@@H]32)c(=O)c2nn(C3=CCOCC3)nc2n1CC(=O)NC12CC(C(C)C)(C1)C2` [Compound I-184, 2-[2-(3,6-dihydro-2H-pyran-4-yl)-5-ethyl-7-oxo-6-[(1S,6S)-5-(pyridine-2-carbonyl)-2,5-diazabicyclo[4.2.0]octan-2-yl]-2H,4H,7H-[1,2,3]triazolo[4,5-b]pyridin-4-yl]-N-[3-(propan-2-yl)bicyclo[1.1.1]pentan-1-yl]acetamide], in experiment [1] (Homo sapiens), the EC50 was in the range of 500 to 2000 nM. The IC50 in experiment [2] fell in the range of 5 to 50 nM.

Regarding `CCc1c(N2CCN(C(=O)c3ncnc(C)c3O)[C@H]3CC[C@@H]32)c(=O)c2nn(C3=CC(C)OCC3)nc2n1CC(=O)NC12CC(C3CC3)(C1)C2` (stereo partly drawn) [Compound I-164, N-{3-cyclopropylbicyclo[1.1.1]pentan-1-yl}-2-{5-ethyl-6-[(1S,6S)-5-(5-hydroxy-6-methylpyrimidine-4-carbonyl)-2,5-diazabicyclo[4.2.0]octan-2-yl]-2-(6-methyl-3,6-dihydro-2H-pyran-4-yl)-7-oxo-2H,4H,7H-[1,2,3]triazolo[4,5-b]pyridin-4-yl}acetamide], in experiment [1] (Homo sapiens), the EC50 was ≤ 500 nM. In addition, the IC50 in experiment [2] lay within 5 to 50 nM.

For the compound `CCc1c(N2CCN(C(=O)c3c(OC)ncc(C)c3O)[C@H]3CC[C@@H]32)c(=O)c2nn(-c3ccnc(C)c3)nc2n1CC(=O)NC12CC(C3CC3)(C1)C2` [Compound I-74, N-{3-cyclopropylbicyclo[1.1.1]pentan-1-yl}-2-{5-ethyl-6-[(1S,6S)-5-(4-hydroxy-2-methoxy-5-methylpyridine-3-carbonyl)-2,5-diazabicyclo[4.2.0]octan-2-yl]-2-(2-methylpyridin-4-yl)-7-oxo-2H,4H,7H-[1,2,3]triazolo[4,5-b]pyridin-4-yl}acetamide], the EC50 in experiment [1] (Homo sapiens) is ≤ 500 nM. In experiment [2], the IC50 is 5 to 50 nM.

As for `CCc1c(N2CCN(C(=O)c3ncnc(C)c3O)[C@H]3CC[C@@H]32)c(=O)c2nn(-c3ccnc(OC)c3)nc2n1CC(=O)NC1CC2(CCC(F)(F)CC2)C1` [Compound I-68, N-{7,7-difluorospiro[3.5]nonan-2-yl}-2-{5-ethyl-6-[(1S,6S)-5-(5-hydroxy-6-methylpyrimidine-4-carbonyl)-2,5-diazabicyclo[4.2.0]octan-2-yl]-2-(2-methoxypyridin-4-yl)-7-oxo-2H,4H,7H-[1,2,3]triazolo[4,5-b]pyridin-4-yl}acetamide], the EC50 in experiment [1] (Homo sapiens) is > 5000 nM. Moreover, the IC50 in experiment [2] lay within 5 to 50 nM.

Regarding `CCc1c(C2=C(C)CN(C(=O)c3ncnc(C)c3O)CC2)c(=O)c2nn(-c3ccnc(OC)c3)nc2n1CC(=O)NC12CC(C(C)C)(C1)C2` [Compound I-78, 2-{5-ethyl-6-[1-(5-hydroxy-6-methylpyrimidine-4-carbonyl)-5-methyl-1,2,3,6-tetrahydropyridin-4-yl]-2-(2-methoxypyridin-4-yl)-7-oxo-2H,4H,7H-[1,2,3]triazolo[4,5-b]pyridin-4-yl}-N-[3-(propan-2-yl)bicyclo[1.1.1]pentan-1-yl]acetamide], in experiment [1] (Homo sapiens), the EC50 is 2000 to 5000 nM. The IC50 in experiment [2] was 5 to 50 nM.

As to `CCc1c(N2CCN(C(=O)c3ncnc(C)c3O)[C@H]3CC[C@@H]32)c(=O)c2nn([C@@H]3CC3(F)F)nc2n1CC(=O)Nc1ccc(C(F)(F)F)cc1Cl` (single isomer, unassigned) [Compound I-215], the EC50 in experiment [1] (Homo sapiens) was ≤ 500 nM. Moreover, the IC50 in experiment [2] is ≤ 5 nM.

In the case of `CCc1c(N2CCN(C(=O)c3ncnc(C)c3O)CC2)c(=O)c2nn(-c3ccccn3)nc2n1CC(=O)NC12CC(C(C)C)(C1)C2` [Compound I-101, 2-{5-ethyl-6-[4-(5-hydroxy-6-methylpyrimidine-4-carbonyl)piperazin-1-yl]-7-oxo-2-(pyridin-2-yl)-2H,4H,7H-[1,2,3]triazolo[4,5-b]pyridin-4-yl}-N-[3-(propan-2-yl)bicyclo[1.1.1]pentan-1-yl]acetamide], the EC50 in experiment [1] (Homo sapiens) fell in the range of 500 to 2000 nM. The IC50 in experiment [2] was 5 to 50 nM.

In the case of `CCc1c(N2CCN(C(=O)c3ncnc(C)c3O)CC2)c(=O)c2nn(-c3ccnc(OC)c3)nc2n1CC(=O)NC12CC(C(F)(F)F)(C1)C2` [Compound I-5, 2-(5-ethyl-6-(4-(5-hydroxy-6-methylpyrimidine-4-carbonyl)piperazin-1-yl)-2-(2-methoxypyridin-4-yl)-7-oxo-2,7-dihydro-4H-[1,2,3]triazolo[4,5-b]pyridin-4-yl)-N-(3-(trifluoromethyl)bicyclo[1.1.1]pentan-1-yl)acetamide], in experiment [1], the EC50 was 500 to 2000 nM. In addition, in experiment [2], the IC50 was in the range of 5 to 50 nM.

For `CCc1c(N2CCN(C(=O)c3c(O)ccc4ncoc34)[C@H]3CC[C@@H]32)c(=O)c2nn(-c3ccnc(OC)c3)nc2n1CC(=O)NC12CC(C(F)(F)F)(C1)C2` [Compound I-4, 2-(5-ethyl-6-((1S,6S)-5-(6-hydroxybenzo[d]oxazole-7-carbonyl)-2,5-diazabicyclo[4.2.0]octan-2-yl)-2-(2-methoxypyridin-4-yl)-7-oxo-2,7-dihydro-4H-[1,2,3]triazolo[4,5-b]pyridin-4-yl)-N-(3-(trifluoromethyl)bicyclo[1.1.1]pentan-1-yl)acetamide], in experiment [1], the EC50 was ≤ 500 nM. Further, the IC50 in experiment [2] lay within 5 to 50 nM.

`CCc1c(N2CCN(C(=O)c3ncnc(C)c3O)[C@H]3CC[C@@H]32)c(=O)c2nn(-c3ccnc(OC)c3)nc2n1CC(=O)NC12CC(C3CCC3)(C1)C2` [Compound I-28, N-(3-cyclobutylbicyclo[1.1.1]pentan-1-yl)-2-(5-ethyl-6-((1S,6S)-5-(5-hydroxy-6-methylpyrimidine-4-carbonyl)-2,5-diazabicyclo[4.2.0]octan-2-yl)-2-(2-methoxypyridin-4-yl)-7-oxo-2,7-dihydro-4H-[1,2,3]triazolo[4,5-b]pyridin-4-yl)acetamide]: the EC50 in experiment [1] (Homo sapiens) is ≤ 500 nM. The IC50 in experiment [2] is ≤ 5 nM.

Take `CCc1c(N2CCN(C(=O)c3ncnc(C)c3O)[C@H]3CC[C@@H]32)c(=O)c2nn(-c3ccc(OC)nc3)nc2n1CC(=O)NC12CC(C(C)C)(C1)C2` [Compound I-156, 2-{5-ethyl-6-[(1S,6S)-5-(5-hydroxy-6-methylpyrimidine-4-carbonyl)-2,5-diazabicyclo[4.2.0]octan-2-yl]-2-(6-methoxypyridin-3-yl)-7-oxo-2H,4H,7H-[1,2,3]triazolo[4,5-b]pyridin-4-yl}-N-[3-(propan-2-yl)bicyclo[1.1.1]pentan-1-yl]acetamide]: the EC50 in experiment [1] (Homo sapiens) was ≤ 500 nM. Moreover, the IC50 in experiment [2] was 5 to 50 nM.

Consider `CCc1c(N2CCN(C(=O)c3c(N)ncnc3OC)[C@H]3CC[C@@H]32)c(=O)c2nn(C3=CCOCC3)nc2n1CC(=O)NC12CC(C3CC3)(C1)C2` [Compound I-193, 2-{6-[(1S,6S)-5-(4-amino-6-methoxypyrimidine-5-carbonyl)-2,5-diazabicyclo[4.2.0]octan-2-yl]-2-(3,6-dihydro-2H-pyran-4-yl)-5-ethyl-7-oxo-2H,4H,7H-[1,2,3]triazolo[4,5-b]pyridin-4-yl}-N-{3-cyclopropylbicyclo[1.1.1]pentan-1-yl}acetamide], for which the EC50 in experiment [1] (Homo sapiens) is 500 to 2000 nM. Moreover, the IC50 in experiment [2] lay within 5 to 50 nM.
